Experimental findings from patent US20090297510A1, “INHIBITION OF CALPAIN REDUCES ALLERGIC INFLAMMATION” (priority 2008, published 2009) are described below.

Experiment [1] deals with Balb/c mice. Put plainly: FcεRI-mediated passive cutaneous anaphylaxis, Evans blue dye extravasation in ear. It counts as in vivo. Particulars: 0.965 mg/mouse intraperitoneal, 1 h before DNP-BSA challenge i.v.; ears collected 30 min later; control DMSO; FIG. 2. The protocol:
In particular, mice were injected locally in the ear tissue with anti-dinitrophenol (DNP) IgE (20 ng/mouse) a day before. Mice in the treatment group received 0.965 mg/mouse of calpain inhibitor III via intraperitoneal injection. Control group received diluent dimethyl sulfoxide (DMSO) only. One hour later, animals were injected with 100 μg of DNP-BSA in 200 μl 0.5% Evan blue dye via tail vein injection. Thirty minutes later, ear tissues were collected. Evan blue dyes were extracted and measure at 620 nm.
To examine the role of calpain in FcεRI-mediated passive cutaneous anaphylaxis in mice, dorsal sides of the ears of Balb/c mice were injected intradermally with 20 ng anti-DNP IgE (both left ears) in a 20 μl volume using a 30-gauge needle. After 24 h mice in the treatment group received 0.965 mg/mouse of calpain inhibitor III via intraperitoneal injection. Control group received diluent dimethyl sulfoxide (DMSO) only. […] For quantitation of Evans blue dye extravasation as a measure of anaphylaxis associated vascular hyperpermeability, 8-mm skin specimens were removed from the ears of mice, minced in 2 ml formamide, and incubated at 80° C. for 2 h in water bath to extract the dye. The absorbance of the extracted dye was read at 620 nm.

Experiment [2] deals with JNK phosphorylation in mast cells. Nature of the experiment: Western blot of IgE-dependent kinase phosphorylation in mast cell lysates. It counts as cell-based, mouse. Particulars: BMMC, inhibitor or DMSO 1 hour, then TNP-BSA 10 ng/ml for various times, FIG. 4. The procedure:
In particular, mouse bone marrow-derived mast cells (60 million) were sensitized overnight with 90 ml fresh culture medium and 30 ml TIB141-conditioned medium enriched in IgE directed against trinitrophenyl (TNP). Cells were then washed twice with RPMI 1640 and resuspended in 10% FBS-RPMI 1640 at 1 million cells/ml. Five ml of cells were aliquoted for each treatment. Calpain inhibitor 3 (CI3) or DMSO was added and to the sample and incubated at 37° C. in a 5% CO2 incubator for 1 hour. Then, TNP-BSA (10 ng/ml) was added to stimulate mast cells for various times as indicated. After incubation, cells were transferred to a 50 ml tube, and centrifuged at 500×g for 5 min at 4° C. Supernatants were discarded and cell pellets were kept on ice. Cell pellets were lysed with 30 μl ice-cold RIPA lysis buffer for each condition. Lysates were transferred to 1.5 ml tubes, vortexed for 10 seconds at the highest setting, pipetted 20 times, vortexed for 10 seconds again, and incubated for 20 minutes on ice. Subsequently, lysates were centrifuged at 15,000×g for 10 minutes in a cold room. Supernatants were then transferred to new tubes and used for Western blotting with antibodies to phospho-IκB, total IκB, phospho-p38, total p38, phospho-JNK, total JNK, phospho-ERK, total ERK and actin. […]

Regarding calpain inhibitor III, the “IgE-dependent passive cutaneous anaphylaxis (Evans blue dye extravasation, absorbance at 620 nm)” value in experiment [1] is “reduced IgE-dependent passive cutaneous anaphylaxis”. Further, in experiment [2], the “IgE-dependent JNK phosphorylation in mast cells” value was “reduced IgE-dependent JNK phosphorylation in mast cells”.
